Results on four compounds are retold here after patent US9295626B2, “Compositions comprising isosorbide monoester and N-hydroxypyridones” (Clariant International Ltd., priority 2011, dated 2016).

For experiment [1], the system named is bacteria, fungi and yeasts. In words: Antimicrobial activity overall. It counts as cell-based. The source says: Below, the antimicrobial efficacy of a composition according to the invention consisting of 50% by weight of isorbide caprylate 1 and 50% by weight of a 10% by weight strength solution of the monoethanolamine salt of 4-methyl-6-(2,4,4-trimethylpentyl)-1-hydroxy-2-pyridone (Octopirox®, 100% by weight strength, Clariant) in butyl polyglycol against bacteria, fungi and yeasts is examined (hereinbelow, the composition is referred to as “composition A”). For the tests with bacteria, composition A was diluted with butyl polyglycol and then, at 50° C., added to liquid CASO agar (casein-peptone agar) buffered to pH 7 (+/−0.2) in various concentrations (hereinbelow referred to as compositions B1, B2, etc.). […]
The minimum inhibitory concentrations for the pure substances isosorbide caprylate 1 and Octopirox® were determined analogously. […]
(§1) Analogously to the determination of the antimicrobial activity according to the above example B), the antimicrobial activity of a mixture comprising, firstly, 89.6% by weight of isosorbide dicaprylate and 9.4% by weight of isosorbide monocaprylate (remainder: 1% by weight) (hereinbelow referred to as “isosorbide dicaprylate”) and, secondly, pure isosorbide was determined in further test series.

Experiment [2] deals with bacteria, fungi and yeasts. Particulars: general statement, no test described, cited from earlier work.
A further experiment concerns Fusarium solani. In words: Antimicrobial efficacy, MIC by agar dilution. In kind it is cell-based. The settings on record: Sabouraud 4% dextrose agar pH 5.6.
From the text: (§2) Below, the antimicrobial efficacy of a composition according to the invention consisting of 50% by weight of isorbide caprylate 1 and 50% by weight of a 10% by weight strength solution of the monoethanolamine salt of 4-methyl-6-(2,4,4-trimethylpentyl)-1-hydroxy-2-pyridone (Octopirox®, 100% by weight strength, Clariant) in butyl polyglycol against bacteria, fungi and yeasts is examined (hereinbelow, the composition is referred to as “composition A”). For the tests with bacteria, composition A was diluted with butyl polyglycol and then, at 50° C., added to liquid CASO agar (casein-peptone agar) buffered to pH 7 (+/−0.2) in various concentrations (hereinbelow referred to as compositions B1, B2, etc.). For the tests with fungi and yeasts, composition A was diluted with butyl polyglycol and then added to liquid Sabouraud 4% dextrose agar buffered to pH 5.6 (+/−0.2) in various concentrations (hereinbelow referred to as compositions PH1, PH2, etc.). The compositions B1, B2, etc. and PH1, PH2 etc. were each poured into Petri dishes and each inoculated with identical amounts of bacteria, fungi and yeasts. The minimum inhibitory concentration (MIC) is the concentration at which inhibition of the growth of the bacteria, fungi and yeasts in the compositions B1, B2, etc. and PH1, PH2, etc. occurs.
(§3) The minimum inhibitory concentrations for the pure substances isosorbide caprylate 1 and Octopirox® were determined analogously.
(§4) The values determined for the minimum inhibitory concentrations “MIC mixture”, stated in Table 1 below, are based on the concentrations of composition A.
(§5) The values determined for the minimum inhibitory concentrations “QA” and “QB”, stated in Table 1 below, have already been corrected for the dilution effect of the butyl polyglycol.
(§6) Kull et al., Applied Microbiology 1961, 9, 538 using the formula below: SE=Qa/QA+Qb/QB where • Qa is the minimum inhibitory concentration of isosorbide caprylate 1 in the mixture employed, • QA is the minimum inhibitory concentration of isosorbide caprylate 1, • Qb is the minimum inhibitory concentration of Octopirox® in the mixture employed and • QB is the minimum inhibitory concentration of Octopirox®.
(§7) The values for Qa and Qb are determined from the values for the mixtures (“MIC mixture”) by multiplying the minimum inhibitory concentrations determined for Qa with the factor 0.5 and for Qb with the factor 0.05, because of the proportions of the ingredients—50% by weight of isosorbide caprylate 1 and 50% by weight of a 10% by weight strength solution of Octopirox® in butyl polyglycol—in composition A according to the invention examined.
(§8) If an SE value>1 is obtained, an antagonistic effect is present.
as §1
(In general: In agar dilution, organisms are placed on agar that contains the substance at set levels.)

The test system of another experiment is Aspergillus terreus. In words: Antimicrobial efficacy, MIC by agar dilution. It counts as cell-based. Particulars: Sabouraud 4% dextrose agar pH 5.6.
From the text: as §2, §3, §4, §5, §6, §7, §8, §1

The next experiment has as its system Proteus vulgaris. In words: Antimicrobial efficacy, MIC by agar dilution. In kind it is cell-based. Particulars: CASO agar pH 7.
From the text: as §2, §3, §4, §5, §6, §7, §8, §1

In another experiment the test system is Staphylococcus aureus. Nature of the experiment: Antimicrobial efficacy, MIC by agar dilution. It counts as cell-based. Particulars: CASO agar pH 7.
From the text: as §2, §3, §4, §5, §6, §7, §8, §1

For the next experiment, the system named is Klebsiella pneumoniae. In words: Antimicrobial efficacy, MIC by agar dilution. Particulars: CASO agar pH 7. In kind it is cell-based.
From the text: as §2, §3, §4, §5, §6, §7, §8, §1

The subject of another experiment is Pseudomonas aeruginosa. Nature of the experiment: Antimicrobial efficacy, MIC by agar dilution. In kind it is cell-based. The settings on record: CASO agar pH 7.
From the text: as §2, §3, §4, §5, §6, §7, §8, §1

For the next experiment, the system named is Escherichia coli. In words: Antimicrobial efficacy, MIC by agar dilution. It counts as cell-based. Particulars: CASO agar pH 7.
From the text: as §2, §3, §4, §5, §6, §7, §8, §1

In another experiment the test system is Aspergillus brasiliensis. Nature of the experiment: Antimicrobial efficacy, MIC by agar dilution. In kind it is cell-based. The settings on record: Sabouraud 4% dextrose agar pH 5.6.
From the text: as §2, §3, §4, §5, §6, §7, §8, §1

The test system of the next experiment is Enterobacter aerogenes. Nature of the experiment: Antimicrobial efficacy, MIC by agar dilution. In kind it is cell-based. Particulars: CASO agar pH 7.
From the text: as §2, §3, §4, §5, §6, §7, §8, §1

The subject of the next experiment is Penicillium minioluteum. In words: Antimicrobial efficacy, MIC by agar dilution. Particulars: Sabouraud 4% dextrose agar pH 5.6. It counts as cell-based.
From the text: as §2, §3, §4, §5, §6, §7, §8, §1

The next experiment has as its system Pseudomonas oleovorans. In words: Antimicrobial efficacy, MIC by agar dilution. In kind it is cell-based. Particulars: CASO agar pH 7.
From the text: as §2, §3, §4, §5, §6, §7, §8, §1

For a further experiment, the system named is Citrobacter freundii. Nature of the experiment: Antimicrobial efficacy, MIC by agar dilution. It counts as cell-based. Particulars: CASO agar pH 7.
From the text: as §2, §3, §4, §5, §6, §7, §8, §1

For the next experiment, the system named is Candida albicans. In words: Antimicrobial efficacy, MIC by agar dilution. Particulars: Sabouraud 4% dextrose agar pH 5.6. It counts as cell-based.
From the text: as §2, §3, §4, §5, §6, §7, §8, §1

Another experiment relates to Penicillium funicolosium. Nature of the experiment: Antimicrobial efficacy, MIC by agar dilution. In kind it is cell-based. Particulars: Sabouraud 4% dextrose agar pH 5.6.
From the text: as §2, §3, §4, §5, §6, §7, §8, §1

[3] abbreviates: MIC of Octopirox alone, corrected for butyl polyglycol dilution.
Where [4] appears, read: MIC of Octopirox in the mixture (MIC mixture x 0.05).

Regarding isosorbide monocaprylate, the “antimicrobial activity (concluded)” value in experiment [1] (concluded from QA of isosorbide caprylate 1 and inactivity of its other constituents) was “significant antimicrobial activity”.

For the compound `CCCCCCCC(=O)O` [caprylic acid], the antimicrobial efficacy result in experiment [2] is reported as “antimicrobially effective”. In [2] (pH of 6 or above), the “antimicrobial activity at a pH of 6 or above” value is “no antimicrobial activity”.

In the case of `O[C@@H]1CO[C@H]2[C@@H]1OC[C@@H]2O` [isosorbide], in experiment [1] (all bacteria, fungi and yeasts of Table 2), the “antimicrobial activity (summary of Table 2)” value is listed as “neither isosorbide nor isosorbide dicaprylate are antimicrobially active”.

`Cc1cc(CC(C)CC(C)(C)C)n(O)c(=O)c1.NCCO` (centres unmarked) [Octopirox®, monoethanolamine salt of 4-methyl-6-(2,4,4-trimethylpentyl)-1-hydroxy-2-pyridone]: the “OB, meas.” value in the experiment with Fusarium solani (setting [3]) amounted to 20 ppm; in the experiment with Aspergillus terreus (setting [3]), 20 ppm; with Proteus vulgaris (setting [3]) it was 25 ppm; with Staphylococcus aureus (setting [3]) it was 25 ppm; with Klebsiella pneumoniae (setting [3]) it was 50 ppm; in the experiment on Pseudomonas aeruginosa (setting [3]) it was 25 ppm. Besides, the “OB, meas.” value in the experiment on Escherichia coli (setting [3]) was determined as 25 ppm; in the experiment with Aspergillus brasiliensis (setting [3]) it was 20 ppm; in the experiment with Enterobacter aerogenes (setting [3]) it was 100 ppm; in the experiment with Penicillium minioluteum (setting [3]), 20 ppm; with Pseudomonas oleovorans (setting [3]) it was 50 ppm; in the experiment with Citrobacter freundii (setting [3]), 50 ppm. In addition, the “OB, meas.” value in the experiment on Candida albicans (setting [3]) and in the experiment with Penicillium funicolosium (setting [3]) was 20 ppm in each case. The “Ob, calc.” value is 10 ppm with Fusarium solani (setting [4]); 10 ppm with Aspergillus terreus (setting [4]); 12.5 ppm in the experiment on Proteus vulgaris (setting [4]); 25 ppm in the experiment on Staphylococcus aureus (setting [4]); 25 ppm with Klebsiella pneumoniae (setting [4]); 25 ppm with Pseudomonas aeruginosa (setting [4]). In addition, the “Ob, calc.” value is 25 ppm with Escherichia coli (setting [4]); 10 ppm in the experiment with Aspergillus brasiliensis (setting [4]); 25 ppm with Enterobacter aerogenes (setting [4]); 10 ppm with Penicillium minioluteum (setting [4]); 25 ppm in the experiment with Pseudomonas oleovorans (setting [4]); 25 ppm in the experiment on Citrobacter freundii (setting [4]). Besides, the “Ob, calc.” value with Candida albicans (setting [4]) and in the experiment with Penicillium funicolosium (setting [4]) was 10 ppm throughout.
